Eight compounds from patent publication US10787443B2, “RAF-degrading conjugate compounds” (ZAMBONI CHEM SOLUTIONS INC., priority 2017, dated 2020) can be followed below.

Molecules are shown by their SMILES.

One assay addresses BRAF/VHL (Homo sapiens, UniProt P15056+P40337). The following applies: FIG. 12; various concentrations.
The target in assay [1] is T1, CRAF (CRAF fusion protein with a fluorescent protein) in Calu-6 cells (Homo sapiens, UniProt P04049).
T1 construct: fluorescent protein (green); expressed in transfected cells; host or cells: Calu-6
T1 sequence (P04049 whole entry, the tested form may be a part): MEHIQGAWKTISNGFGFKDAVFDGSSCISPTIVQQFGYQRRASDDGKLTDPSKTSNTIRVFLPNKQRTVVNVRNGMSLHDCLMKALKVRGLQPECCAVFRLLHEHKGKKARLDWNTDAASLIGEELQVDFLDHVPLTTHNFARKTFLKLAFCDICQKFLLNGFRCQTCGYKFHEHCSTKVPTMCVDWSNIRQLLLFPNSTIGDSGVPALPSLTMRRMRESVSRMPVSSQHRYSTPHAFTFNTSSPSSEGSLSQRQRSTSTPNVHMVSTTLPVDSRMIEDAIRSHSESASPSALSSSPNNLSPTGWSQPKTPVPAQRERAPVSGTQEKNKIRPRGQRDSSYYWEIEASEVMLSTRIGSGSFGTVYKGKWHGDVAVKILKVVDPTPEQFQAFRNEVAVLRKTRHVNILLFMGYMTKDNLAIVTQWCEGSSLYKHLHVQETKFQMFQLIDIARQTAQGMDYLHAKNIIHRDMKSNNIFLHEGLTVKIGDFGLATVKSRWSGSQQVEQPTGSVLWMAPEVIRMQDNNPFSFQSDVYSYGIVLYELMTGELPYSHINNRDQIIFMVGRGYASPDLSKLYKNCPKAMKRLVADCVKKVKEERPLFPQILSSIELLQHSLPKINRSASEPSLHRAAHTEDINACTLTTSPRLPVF
Kind of assay: Degradation assay, fluorescent CRAF fusion protein levels in Calu-6 cells (IncuCyte S3). The following applies: fluorescence/confluence. In kind it is cell-based. The procedure: Calu-6 cells were stably transfected with a CRAF fusion protein with a fluorescent protein attached to the C-terminus of CRAF in order to monitor protein levels via fluorescence. Cells were seeded into a 96-well plate and allowed to adhere overnight. The next day cells are treated with compounds at the doses indicated in the table below and analyzed over time. Data was collected by monitoring Fluorescent CRAF protein levels an IncuCyte S3 Live Cell Analysis System (Essen BioScience). […] Calu6_CRAF fusion protein cells are imaged and analyzed using an Incucyte S3 live-cell analysis system (Essen Biosciences). Fluorescence signal is due to expression of the fluorescent protein covalently fused to the C-terminus of CRAF and degradation is assessed by measuring fluorescence/confluence (˜cell number) after treatment with compounds of the present disclosure. Phase contrast images are analyzed using Incucyte S3 software. Percent confluence is calculated using a phase contrast mask to quantify the area of the image occupied by the Calu6_CRAF fusion protein cells. Fluorescent images are analyzed using Incucyte S3 software. Green Corrected Units (GCU) is calculated using a fluorescence mask to quantify the area of the image occupied by green fluorescent signal and the intensity of the signal. […] As discussed above, degradation is measured as a function of fluorescence/confluence.

The subject of assay [2] is GST-Braf kinase domain and biotinylated E3 substrate adapter (VHL/EloB/EloC complex or CRBN318-425). Kind of assay: Dimerization assay (AlphaScreen/AlphaLisa), RAF/E3 dimerization. In kind it is binding. Particulars: Table 17; relative value; compounds 4 fold serial dilutions from 20 μM. In general terms: Bead proximity is the source of the signal in Alpha formats.

Chain of BRAF/VHL (P15056 457-717 limits assumed): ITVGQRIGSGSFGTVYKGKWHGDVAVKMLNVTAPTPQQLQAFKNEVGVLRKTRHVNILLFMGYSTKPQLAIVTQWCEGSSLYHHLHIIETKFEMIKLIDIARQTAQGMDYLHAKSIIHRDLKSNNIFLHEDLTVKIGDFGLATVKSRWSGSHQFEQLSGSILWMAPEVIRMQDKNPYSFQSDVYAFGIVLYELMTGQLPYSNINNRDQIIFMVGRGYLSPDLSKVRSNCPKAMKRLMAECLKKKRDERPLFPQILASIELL
Chain of BRAF/VHL (P40337 54-213 limits assumed): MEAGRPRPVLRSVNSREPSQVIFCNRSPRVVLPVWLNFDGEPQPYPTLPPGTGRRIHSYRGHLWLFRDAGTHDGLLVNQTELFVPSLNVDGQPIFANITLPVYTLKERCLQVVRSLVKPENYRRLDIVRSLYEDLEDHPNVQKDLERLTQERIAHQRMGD
Chain of BRAF/VHL (Q15370 whole entry partner, the tested form may be a part): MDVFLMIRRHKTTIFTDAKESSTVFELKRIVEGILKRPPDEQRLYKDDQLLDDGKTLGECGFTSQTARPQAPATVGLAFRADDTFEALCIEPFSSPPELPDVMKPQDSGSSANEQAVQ
Chain of BRAF/VHL (Q15369 17-112 partner limits assumed): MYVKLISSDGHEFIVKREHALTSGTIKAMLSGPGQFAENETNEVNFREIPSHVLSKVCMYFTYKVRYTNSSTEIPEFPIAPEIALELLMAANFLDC

Consider `Cc1ncc(NC(=O)c2cccc(C(F)(F)F)c2)cc1-c1cnc(OC2CCOCC2)c(N2CCOCC2)c1` [RAF709, reference compound], for which the BRAF/VHL dimerization result on BRAF/VHL is recorded as “does not cause dimerization”.

Consider `Cc1ncc(NC(=O)c2cccc(C(F)(F)F)c2)cc1-c1cnc(O[C@H]2CCO[C@@H](COCc3cn(CCCCCC(=O)N[C@@H](C(=O)N4C[C@H](O)C[C@H]4C(=O)N[C@@H](C)c4ccc(-c5scnc5C)cc4)C(C)(C)C)nn3)C2)c(N2CCOCC2)c1` (relative stereo) [Compound 2.004, (2S,4R)-1-((R)-3,3-dimethyl-2-(6-(4-((((2R*,4S*)-4-((2′-methyl-5-morpholino-5′-(3-(trifluoromethyl)benzamido)-[3,3′-bipyridin]-6-yl)oxy)tetrahydro-2H-pyran-2-yl)methoxy)methyl)-1H-1,2,3-triazol-1-yl)hexanamido)butanoyl)-4-hydroxy-N—((S)-1-(4-(4-methylthiazol-5-yl)phenyl)ethyl)pyrrolidine-2-carboxamide], for which the “CRAF degradation in Calu6 cells over time” value (“CRAF degradation … over time” for short) in assay [1] (1.5 μM, FIG. 3) is listed as “CRAF degradation”. The “RAF/E3 Dimerization” value in assay [2] is reported as “+++ (50% > RAF/E3 Dimerization ≥ 25)”.

Take `Cc1ncc(NC(=O)c2cccc(C(F)(F)F)c2)cc1-c1cnc(OCCOCCOCCOCCOCC(=O)NCCOCCCc2cccc3c2CN(C2CCC(=O)NC2=O)C3=O)c(N2CCOCC2)c1` (stereo not drawn) [Compound 2.016, N-(2-(3-(2-(2,6-dioxopiperidin-3-yl)-1-oxoisoindolin-4-yl)propoxy)ethyl)-14-((2′-methyl-5-morpholino-5′-(3-(trifluoromethyl)benzamido)-[3,3′-bipyridin]-6-yl)oxy)-3,6,9,12-tetraoxatetradecan-1-amide]: in assay [1] (5 μM, FIG. 11), the “CRAF degradation … over time” value is reported as “CRAF degradation”. Besides, in assay [2], the “RAF/E3 Dimerization” value was “+++++ (RAF/E3 Dimerization ≥75%)”.

Consider `Cc1ccc(NC(=O)c2cccc(C(F)(F)F)c2)cc1-c1cnc(OCCc2cn(CCCCCC(=O)Nc3cccc4c3C(=O)N(C3CCC(=O)NC3=O)C4=O)nn2)c(N2CCOCC2)c1` (stereo not drawn) [Compound 1.009, N-(3-(6-(2-(1-(6-((2-(2,6-dioxopiperidin-3-yl)-1,3-dioxoisoindolin-4-yl)amino)-6-oxohexyl)-1H-1,2,3-triazol-4-yl)ethoxy)-5-morpholinopyridin-3-yl)-4-methylphenyl)-3-(trifluoromethyl)benzamide], for which the “CRAF degradation … over time” value in assay [1] (3 μM, FIG. 4, 8, 9) is on record as “CRAF degradation”. Also, the “RAF/E3 Dimerization” value in assay [2] was “+ (5% > RAF/E3 Dimerization)”.

`Cc1ncc(NC(=O)c2cccc(C(F)(F)F)c2)cc1-c1cnc(OCCOCCOCC(=O)NCCCCCCc2cccc3c2CN(C2CCC(=O)NC2=O)C3=O)c(N2CCOCC2)c1` (stereo not drawn) [Compound 2.015, N-(6′-(2-(2-(2-((6-(2-(2,6-dioxopiperidin-3-yl)-1-oxoisoindolin-4-yl)hexyl)amino)-2-oxoethoxy)ethoxy)ethoxy)-2-methyl-5′-morpholino-[3,3′-bipyridin]-5-yl)-3-(trifluoromethyl)benzamide]: in assay [1] (2 μM, FIG. 10), the “CRAF degradation … over time” value is “CRAF degradation”. Besides, in assay [2], the “RAF/E3 Dimerization” value is recorded as “+++ (50% > RAF/E3 Dimerization ≥ 25)”.

Consider `Cc1ccc(NC(=O)c2cccc(C(F)(F)F)c2)cc1-c1cnc(OCCOCc2cn(CCCCCC(=O)Nc3cccc4c3C(=O)N(C3CCC(=O)NC3=O)C4=O)nn2)c(N2CCOCC2)c1` (stereo not drawn) [Compound 2.012, N-(3-(6-(2-((1-(6-((2-(2,6-dioxopiperidin-3-yl)-1,3-dioxoisoindolin-4-yl)amino)-6-oxohexyl)-1H-1,2,3-triazol-4-yl)methoxy)ethoxy)-5-morpholinopyridin-3-yl)-4-methylphenyl)-3-(trifluoromethyl)benzamide], for which the “CRAF degradation … over time” value in assay [1] (3 μM, FIG. 4, 8, 9) is “CRAF degradation”. Further, in assay [2], the “RAF/E3 Dimerization” value is “+++ (50% > RAF/E3 Dimerization ≥ 25)”.

Take `Cc1ncc(NC(=O)c2cccc(C(F)(F)F)c2)cc1-c1cnc(OCCOCCOCCOCC(=O)NCCOCCCc2cccc3c2C(=O)N(C2CCC(=O)NC2=O)C3=O)c(N2CCOCC2)c1` (stereo not drawn) [Compound 2.021, N-(6′-((18-(2-(2,6-dioxopiperidin-3-yl)-1,3-dioxoisoindolin-4-yl)-11-oxo-3,6,9,15-tetraoxa-12-azaoctadecyl)oxy)-2-methyl-5′-morpholino-[3,3′-bipyridin]-5-yl)-3-(trifluoromethyl)-benzamide]: in assay [1] (15 μM, FIG. 6), the “CRAF degradation … over time” value is listed as “CRAF degradation”. Further, the “RAF/E3 Dimerization” value in assay [2] was “++ (25% > RAF/E3 Dimerization ≥ 5%)”.

Turning to `Cc1ncc(NC(=O)c2cccc(C(F)(F)F)c2)cc1-c1cnc(OCCOCCOCCOCCOCC(=O)NCCCCCc2cccc3c2CN(C2CCC(=O)NC2=O)C3=O)c(N2CCOCC2)c1` (stereo not drawn) [Compound 2.014, N-(5-(2-(2,6-dioxopiperidin-3-yl)-1-oxoisoindolin-4-yl)pentyl)-14-((2′-methyl-5-morpholino-5′-(3-(trifluoromethyl)benzamido)-[3,3′-bipyridin]-6-yl)oxy)-3,6,9,12-tetraoxatetradecan-1-amide], the “CRAF degradation … over time” value in assay [1] (12.5 μM, FIG. 7) is “CRAF degradation”. Besides, in assay [2], the “RAF/E3 Dimerization” value was “+++++ (RAF/E3 Dimerization ≥75%)”.
